Experimental findings from ChEMBL document CHEMBL5550171, “Poly (ADP-ribose) polymerase (PARP) inhibitors as anticancer agents: An outlook on clinical progress, synthetic strategies, biological activity, and structure-activity relationship” (Eur J Med Chem, 2024) are described below.

Structures are written as SMILES.

Experiment [1] has as its system MDA-MB-436. The experiment can be described thus: Cytotoxicity against human MDA-MB-436 cells. The format is functional, cell-based.
For another experiment, the system named is HCT-116. The experiment can be described thus: Cytotoxicity against human HCT-116 cells assessed as reduction in cell growth incubated for 96 hrs by MTT assay. The format is functional, cell-based. The note with it: HCT-116, 96 h. In general terms: Formazan colour is commonly taken as a measure of viable cells.
Experiment [2] has as its system MCF7. The experiment can be described thus: Cytotoxicity against human MCF7 cells assessed as reduction in cell growth incubated for 72 hrs by alamar blue reagent based analysis. The format is functional. The note with it: MCF7, 72 h. For orientation: Alamar Blue is a resazurin reagent that responds to reducing activity.
The subject of experiment [3] is MDA-MB-231. The experiment can be described thus: Cytotoxicity against human MDA-MB-231 cells assessed as reduction in cell growth incubated for 72 hrs by alamar blue reagent based analysis. The experiment is classed as functional. The note with it: MDA-MB-231, 72 h.
Experiment [4] relates to MDA-MB-436. The experiment can be described thus: Antiproliferative activity against human MDA-MB-436 cells. The experiment is classed as functional, cell-based.
In experiment [5] the target is T1, Poly [ADP-ribose] polymerase 1 (Homo sapiens, UniProt P09874). The experiment can be described thus: Inhibition of human recombinant PARP1 expressed in Escherichia coli BL21(DE3).
Experiment [6] deals with T1, Poly [ADP-ribose] polymerase 1. The experiment can be described thus: Inhibition of human PARP1.
Experiment [7] has as its system MDA-MB-436. The experiment can be described thus: Antiproliferative activity against human MDA-MB-436 cells assessed as reduction in cell viability incubated for 72 hrs by MTT assay. The note with it: MDA-MB-436, 72 h. The format is functional, cell-based.
The target of experiment [8] is T1, Poly [ADP-ribose] polymerase 1. The experiment can be described thus: Inhibition of human recombinant PARP-1 by ELISA assay. Background: ELISA stands for enzyme-linked immunosorbent assay.
The test system of experiment [9] is MCF7. The experiment can be described thus: Antiproliferative activity against human MCF7 cells assessed as cell growth inhibition. The experiment is classed as functional, cell-based.
Another experiment relates to MX1. The experiment can be described thus: Antiproliferative activity against human MX1 cells assessed as cell growth inhibition. The experiment is classed as functional, cell-based.
Experiment [10] can be described thus: Antiproliferative activity against human MCF10A cells assessed as inhibition of cell growth incubated for 72 hrs by alamar blue assay. The format is functional, cell-based. The note with it: MCF10AT1, 72 h.
The target in experiment [11] is T1, Poly [ADP-ribose] polymerase 1. The experiment can be described thus: Inhibition of human recombinant PARP1 at 0.01 uM relative to control.
For experiment [12] the target is unchanged. The experiment can be described thus: Inhibition of human recombinant PARP1 at 0.1 uM relative to control.
The target is the same in experiment [13]. The experiment can be described thus: Inhibition of human recombinant PARP1 at 1 uM relative to control.
Experiment [14] shares this target. The experiment can be described thus: Inhibition of human recombinant PARP1 at 10 uM relative to control.
Experiment [15] has the same target. The experiment can be described thus: Inhibition of human recombinant PARP1 at 100 uM relative to control.
For experiment [16] the target is unchanged. The experiment can be described thus: Inhibition of PARP1 (unknown origin).
In experiment [17] the test system is MCF7. The experiment can be described thus: Antiproliferative activity against human MCF7 cells assessed as reduction in cell growth measured after 72 hrs by MTT assay. The format is functional, cell-based. To be noted: MCF7, 72 h.
Experiment [18] concerns CAPAN-1. The experiment can be described thus: Antiproliferative activity against human CAPAN-1 cells assessed as reduction in cell growth. The experiment is classed as functional, cell-based.
The subject of experiment [19] is CAPAN-1. The experiment can be described thus: Antiproliferative activity against human CAPAN-1 cells assessed as reduction in cell viability incubated for 72 hrs by CCK-8 assay. The format is functional, cell-based. The note with it: CAPAN-1, 72 h.
In a further experiment the test system is HCC1937. The experiment can be described thus: Antiproliferative activity against human HCC1937 cells assessed as reduction in cell viability incubated for 72 hrs by CCK-8 assay. The experiment is classed as functional, cell-based. The note with it: HCC1937, 72 h.
In experiment [20] the test system is MDA-MB-436. The experiment can be described thus: Antiproliferative activity against human MDA-MB-436 cells assessed as reduction in cell viability incubated for 72 hrs by CCK-8 assay. The format is functional, cell-based. To be noted: MDA-MB-436, 72 h.
For experiment [21], the system named is MCF7. The experiment can be described thus: Antiproliferative activity against human MCF7 cells assessed as reduction in cell growth incubated for 72 hrs by CCK-8 assay. The format is functional, cell-based. To be noted: MCF7, 72 h.
In experiment [22] the test system is MDA-MB-231. The experiment can be described thus: Antiproliferative activity against human MDA-MB-231 cells assessed as reduction in cell growth incubated for 72 hrs by CCK-8 assay. The experiment is classed as functional, cell-based. The note with it: MDA-MB-231, 72 h.
For the next experiment, the system named is A549. The experiment can be described thus: Antiproliferative activity against human A549 cells assessed as reduction in cell growth incubated for 72 hrs by CCK-8 assay. The format is functional, cell-based. The note with it: A549, 72 h.
The test system of another experiment is K562. The experiment can be described thus: Antiproliferative activity against human K562 cells assessed as reduction in cell growth incubated for 72 hrs by CCK-8 assay. The format is functional, cell-based. To be noted: K562, 72 h.

T1 sequence (P09874 whole entry): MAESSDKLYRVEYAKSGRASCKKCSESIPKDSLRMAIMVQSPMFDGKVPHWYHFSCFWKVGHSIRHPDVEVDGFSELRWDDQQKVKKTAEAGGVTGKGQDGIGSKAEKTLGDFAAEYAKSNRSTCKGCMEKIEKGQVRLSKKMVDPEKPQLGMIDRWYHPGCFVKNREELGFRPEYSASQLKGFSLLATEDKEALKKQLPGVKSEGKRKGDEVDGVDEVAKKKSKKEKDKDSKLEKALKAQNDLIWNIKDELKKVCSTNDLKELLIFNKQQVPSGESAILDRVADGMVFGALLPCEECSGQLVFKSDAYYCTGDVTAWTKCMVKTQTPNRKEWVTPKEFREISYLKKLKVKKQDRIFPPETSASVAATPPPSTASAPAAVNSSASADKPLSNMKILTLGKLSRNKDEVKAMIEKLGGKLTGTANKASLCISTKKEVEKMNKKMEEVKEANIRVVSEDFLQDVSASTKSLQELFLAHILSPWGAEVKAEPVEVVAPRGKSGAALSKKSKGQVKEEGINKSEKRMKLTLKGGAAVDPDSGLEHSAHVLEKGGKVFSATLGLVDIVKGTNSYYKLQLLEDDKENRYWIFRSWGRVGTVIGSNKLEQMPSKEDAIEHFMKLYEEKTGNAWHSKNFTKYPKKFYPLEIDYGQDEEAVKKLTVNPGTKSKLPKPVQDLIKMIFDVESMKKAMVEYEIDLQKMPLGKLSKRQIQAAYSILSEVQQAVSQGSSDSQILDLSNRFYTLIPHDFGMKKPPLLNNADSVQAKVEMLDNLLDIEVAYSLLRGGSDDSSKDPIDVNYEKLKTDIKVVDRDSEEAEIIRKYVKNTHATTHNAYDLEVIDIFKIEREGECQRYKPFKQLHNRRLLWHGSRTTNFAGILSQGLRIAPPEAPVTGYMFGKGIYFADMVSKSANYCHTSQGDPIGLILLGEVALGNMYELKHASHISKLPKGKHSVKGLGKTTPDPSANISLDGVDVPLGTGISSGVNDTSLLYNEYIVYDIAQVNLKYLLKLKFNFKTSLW

As for `COc1ccc(/C=C2\CC3(CC4C2OC(=O)C(C(C)=O)C4c2ccc(OC)cc2)OCCO3)cc1` (configuration not stated), the IC50 – broadly, the concentration needed to halve the response being measured – in the experiment with MDA-MB-436 [1] is 7.47 µM.

Consider `O=c1[nH]c2c(c(=O)[nH]1)C(c1cccs1)c1[nH]c(=S)n(-c3ccccc3)c(=O)c1O2` (configuration not stated), for which, in the experiment with HCT-116, the half-maximal inhibitory concentration (IC50) worked out at 46 µM.

As for `O=C(c1cc(Cc2n[nH]c(=O)c3ccccc23)ccc1F)N1CCN(C(=O)C2CC2)CC1` [OLAPARIB], the IC50 is 3.2 µM in the experiment with MCF7 [2], 70.2 µM in the experiment on MDA-MB-231 [3] and 8.9 µM in the experiment on MDA-MB-436 [4].

The molecule `COc1ccc(/C=C2\CC3(CC4C2=NN(C(N)=S)C4c2ccc(OC)cc2)OCCO3)cc1` (configuration not stated) gave an IC50 in the experiment on MDA-MB-436 [1] of 0.67 µM.

Regarding `COc1ccc(Cc2nnc(-c3cccc(-c4ccnc(F)c4C)c3)o2)cc1OC`, the 50% inhibitory concentration (IC50) in the experiment with MCF7 [2] turned out to be 15.3 µM; in the experiment on MDA-MB-231 [3] it was 19.2 µM.

Regarding `Cc1ccoc1C(=O)N1CCN(C(=O)c2ccc(-c3nc4c(C(N)=O)cccc4[nH]3)cc2)C(C)C1` (configuration not stated), the IC50 in [5] came to 0.0163 µM.

In experiment [6], `Cc1c(C(=O)/C=C/c2cccc([N+](=O)[O-])c2)nnn1-c1ccc(Br)cc1` showed an IC50 of 0.00315 µM.

For `NC(=O)c1cccc2[nH]c(-c3ccc(C(=O)N4CCN(C(=O)c5ccc(Cl)o5)CC4)cc3)nc12`, the IC50 in the experiment with MDA-MB-436 [7] was 36.7 µM; in experiment [8], 0.043 µM.

With `O=C1NCC(c2ccc(-c3ccc(C(F)(F)F)cc3)cc2)Nc2ccccc21` (configuration not stated), the IC50 in the experiment with MCF7 [9] turned out to be 37.9 µM; with MX1, 24.6 µM.

For the molecule `COc1ccc(CSc2nccc(OCC(=O)N3CCN(c4cccc(Cl)c4Cl)CC3)n2)cc1`, the IC50 in experiment [10] was 18.2 µM. In addition, the inhibition – broadly, the drop in the measured response relative to a control, in per cent – is 1.3% in experiment [11]; 2% in experiment [12]; 20.6% in [13]; 53% in [14]; 82.1% in experiment [15].

In the case of `Nc1nc(S)nc2c1Oc1[nH]c(=O)[nH]c(=O)c1C2c1cccs1` (configuration not stated), the IC50 with HCT-116 turned out to be 9.31 µM.

For the molecule `O=C(Cn1c(=S)n(-c2ccccc2)c(=O)c2ccccc21)Nc1cccc2ccccc12`, the half-maximal inhibitory concentration (IC50) was 0.14 µM in experiment [16] and 10.6 µM in the experiment on MCF7 [17].

`O=C(NCCc1ccc(F)cc1)c1cc(Cc2n[nH]c(=O)c3ccccc23)ccc1F`: the IC50 in [16] was 0.00324 µM; with CAPAN-1 [18], 7.5 µM.

As for `O=C(CCCc1ccc(N(CCCl)CCCl)cc1)N1CCN(C(=O)c2cc(Cc3n[nH]c(=O)c4ccccc34)ccc2F)CC1`, the IC50 was 0.086 µM in the experiment with CAPAN-1 [19]; 0.18 µM in the experiment on HCC1937; 0.013 µM in the experiment with MDA-MB-436 [20]; 30.6 µM in the experiment on MCF7 [21]; 53.8 µM in the experiment with MDA-MB-231 [22]; 1.62 µM with A549. Also, the IC50 in the experiment with K562 was 10.4 µM.
